Results reported in ChEMBL document CHEMBL5360576, “New and promising type of leukotriene B4 (LTB4) antagonists based on the 1,4-benzodioxine structure” (Eur J Med Chem, 2023).

What was measured:
[1] = target: T1, Leukotriene B4 receptor (Homo sapiens, UniProt Q9NPC1+Q15722); test: Antagonist activity against LTB4 receptor in human U-937 cells at 0.0000001 M incubated for 40 mins by liquid scintillation counting method; assay type: cell-based; settings: dose 100 nM
[2] = target: T1, Leukotriene B4 receptor; test: Antagonist activity against LTB4 receptor in human U-937 cells at 0.00001 M incubated for 40 mins by liquid scintillation counting method; assay type: cell-based; settings: dose 10 µM
[3] = target: T1, Leukotriene B4 receptor; test: Antagonist activity against LTB4 receptor in human U-937 cells incubated for 40 mins by liquid scintillation counting method; assay type: cell-based
[4] = tested on: Rattus norvegicus; test: Antinflammatory activity against carrageenan induced pedal edema rat model assessed as reduction in edema at 10 mg/kg,po administration and measured after 2 hrs relative to control; assay type: functional; design: scale not given: the % may be the effect or the level left
[5] = tested on: Rattus norvegicus; test: Antinflammatory activity against carrageenan induced pedal edema rat model assessed as inflammation at 10 mg/kg,po administration and measured after 1 hr (reference value: 20.17 +/- 2.8 %); assay type: functional
[6] = tested on: Rattus norvegicus; test: Antinflammatory activity against carrageenan induced pedal edema rat model assessed as inflammation at 10 mg/kg,po administration and measured after 4 hrs (reference value: 58.75 +/- 3.5 %); assay type: functional
[7] = tested on: Rattus norvegicus; test: Antinflammatory activity against carrageenan induced pedal edema rat model assessed as average pedal volume at 10 mg/kg,po administration and measured after 2 hrs (reference value: 2.2 +/- 0.1 mL); assay type: functional
[8] = tested on: Rattus norvegicus; test: Antinflammatory activity against carrageenan induced pedal edema rat model assessed as reduction in edema at 10 mg/kg,po administration and measured after 4 hrs relative to control; assay type: functional; design: scale not given: the % may be the effect or the level left
[9] = tested on: Rattus norvegicus; test: Antinflammatory activity against carrageenan induced pedal edema rat model assessed as average pedal volume at 10 mg/kg,po administration and measured after 1 hr (reference value: 1.82 +/- 0.04 mL); assay type: functional
[10] = tested on: Rattus norvegicus; test: Antinflammatory activity against carrageenan induced pedal edema rat model assessed as average pedal volume at 10 mg/kg,po administration and measured after 4 hrs (reference value: 2.41 +/- 0.05 mL); assay type: functional
[11] = tested on: Rattus norvegicus; test: Antinflammatory activity against carrageenan induced pedal edema rat model assessed as inflammation at 10 mg/kg,po administration and measured after 2 hrs (reference value: 45.39 +/- 6.82 %); assay type: functional
[12] = tested on: Rattus norvegicus; test: Antinflammatory activity against carrageenan induced pedal edema rat model assessed as reduction in edema at 10 mg/kg,po administration and measured after 1 hr relative to control; assay type: functional; design: scale not given: the % may be the effect or the level left
[13] = tested on: Rattus norvegicus; test: Antinflammatory activity against carrageenan induced pedal edema rat model assessed as reduction in edema at 30 mg/kg,po administration and measured after 4 hrs relative to control; assay type: functional; design: scale not given: the % may be the effect or the level left
[14] = tested on: Rattus norvegicus; test: Antinflammatory activity against carrageenan induced pedal edema rat model assessed as average pedal volume at 30 mg/kg,po administration and measured after 2 hrs (reference value: 2.2 +/- 0.1 mL); assay type: functional
[15] = tested on: Rattus norvegicus; test: Antinflammatory activity against carrageenan induced pedal edema rat model assessed as average pedal volume at 30 mg/kg,po administration and measured after 4 hrs (reference value: 2.41 +/- 0.05 mL); assay type: functional
[16] = tested on: Rattus norvegicus; test: Antinflammatory activity against carrageenan induced pedal edema rat model assessed as inflammation at 30 mg/kg,po administration and measured after 2 hrs (reference value: 45.39 +/- 6.82 %); assay type: functional
[17] = tested on: Rattus norvegicus; test: Antinflammatory activity against carrageenan induced pedal edema rat model assessed as reduction in edema at 30 mg/kg,po administration and measured after 2 hrs relative to control; assay type: functional; design: scale not given: the % may be the effect or the level left
[18] = tested on: Rattus norvegicus; test: Antinflammatory activity against carrageenan induced pedal edema rat model assessed as inflammation at 30 mg/kg,po administration and measured after 1 hr (reference value: 20.17 +/- 2.8 %); assay type: functional
[19] = tested on: Rattus norvegicus; test: Antinflammatory activity against carrageenan induced pedal edema rat model assessed as average pedal volume at 30 mg/kg,po administration and measured after 1 hr (reference value: 1.82 +/- 0.04 mL); assay type: functional
[20] = tested on: Rattus norvegicus; test: Antinflammatory activity against carrageenan induced pedal edema rat model assessed as inflammation at 30 mg/kg,po administration and measured after 4 hrs (reference value: 58.75 +/- 3.5 %); assay type: functional
[21] = tested on: Rattus norvegicus; test: Antinflammatory activity against carrageenan induced pedal edema rat model assessed as reduction in edema at 30 mg/kg,po administration and measured after 1 hr relative to control; assay type: functional; design: scale not given: the % may be the effect or the level left
[22] = target: T1, Leukotriene B4 receptor; test: Antagonist activity against LTB4 receptor (unknown origin) assessed as inhibition constant; assay type: protein assay

T1 sequence (Q15722 whole entry, looked up): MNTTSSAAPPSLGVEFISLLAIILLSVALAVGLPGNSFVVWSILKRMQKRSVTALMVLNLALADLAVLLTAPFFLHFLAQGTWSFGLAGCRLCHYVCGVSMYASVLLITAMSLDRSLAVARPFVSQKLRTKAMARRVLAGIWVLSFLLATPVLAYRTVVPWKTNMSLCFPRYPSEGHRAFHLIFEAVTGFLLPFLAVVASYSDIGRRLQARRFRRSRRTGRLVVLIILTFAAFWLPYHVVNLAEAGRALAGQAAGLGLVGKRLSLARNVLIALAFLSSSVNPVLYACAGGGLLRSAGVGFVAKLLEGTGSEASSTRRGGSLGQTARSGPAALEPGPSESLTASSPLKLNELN
T1 sequence (Q9NPC1 whole entry, looked up): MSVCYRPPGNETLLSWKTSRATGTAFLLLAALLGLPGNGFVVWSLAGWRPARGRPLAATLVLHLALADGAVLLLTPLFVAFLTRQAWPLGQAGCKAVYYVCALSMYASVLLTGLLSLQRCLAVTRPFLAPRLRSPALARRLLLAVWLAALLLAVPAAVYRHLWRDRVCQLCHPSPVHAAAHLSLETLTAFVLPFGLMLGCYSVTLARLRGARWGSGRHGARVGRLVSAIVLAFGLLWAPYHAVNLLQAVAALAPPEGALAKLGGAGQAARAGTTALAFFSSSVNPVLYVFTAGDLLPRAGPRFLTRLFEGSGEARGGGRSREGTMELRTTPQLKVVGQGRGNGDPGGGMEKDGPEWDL

Row | inhibition [1] [%] | inhibition ([2]; filed as antagonist) [%] | IC50 [3] [nM] | SMILES | also measured
1 | < 10 | 73 | – | CC(OCc1ccccc1)C1=C(C(=O)O)Oc2ccc(OCc3ccccc3)cc2O1 (configuration not stated) | –
2 | 12 | – | – | O=C(O)C1=C(C(=O)N2CCC(c3ccccc3)CC2)Oc2cc(OCc3ccccc3)ccc2O1 | inhibition [2]: 33%
3 | 4.8 | 94 | 2700 | CN(CCc1ccccc1)C(=O)C1=C(C(=O)O)Oc2c(OCc3ccccc3)cccc2O1 | –
4 | – | – | – | O=C(O)C1=C(C(=O)N2CCC(c3ccccc3)CC2)Oc2ccc(OCc3ccccc3)cc2O1 | inhibition [2]: 29%
5 | < 10 | – | – | CC1(CCOCc2ccccc2)OC(=O)C2=C1Oc1cc(OCc3ccccc3)ccc1O2 (configuration not stated) | inhibition [2]: 13%
6 | – | – | – | COc1ccc2c(c1)c(CC(=O)O)c(C)n2C(=O)c1ccc(Cl)cc1 [INDOMETHACIN] | Activity [4]: 45.3%; Activity [5]: 11.1%; Activity [6]: 40.19%; Activity [7]: 1.85 mL; Activity [8]: 31.6%; Activity [9]: 1.65 mL; Activity [10]: 2.06 mL; Activity [11]: 24.64%; Activity [12]: 45%
7 | 6 | – | – | CN(CCc1ccccc1)C(=O)C1=C(C(=O)O)Oc2cccc(OCc3ccccc3)c2O1 | inhibition [2]: 39%
8 | 0 | 82 | – | CC(OCc1ccccc1)C1=C(C(=O)O)Oc2cc(OCc3ccccc3)ccc2O1 (configuration not stated) | –
9 | 0 | 74 | – | CC(OCc1ccc2ccccc2c1)C1=C(C(=O)O)Oc2ccc(OCc3ccccc3)cc2O1 (configuration not stated) | –
10 | 38 | 99 | 288 | CN(CCc1ccccc1)C(=O)C1=C(C(=O)O)Oc2cc(OCc3ccccc3)ccc2O1 | Activity [13]: 8.3%; Activity [14]: 2.04 mL; Activity [15]: 2.42 mL; Activity [16]: 39.05%; Activity [17]: 16.2%; Activity [18]: 12.17%; Activity [19]: 1.66 mL; Activity [20]: 63.63%; Activity [21]: 39.7%
11 | 18 | 97 | 710 | CN(CCc1ccccc1)C(=O)C1=C(C(=O)O)Oc2cc(OCc3ccc4ccccc4c3)ccc2O1 | –
12 | 0 | 62 | 5610 | O=C(O)C1=C(C(=O)N2CCC(Cc3ccccc3)CC2)Oc2cccc(OCc3ccccc3)c2O1 | –
13 | < 10 | 74 | – | CCN(CC)C(=O)C1=C(C(C)OCc2ccccc2)Oc2cc(OCc3ccccc3)ccc2O1 (configuration not stated) | –
14 | 0 | 82 | – | CC(OC/C=C/c1ccccc1)C1=C(C(=O)O)Oc2cc(OCc3ccccc3)ccc2O1 (configuration not stated) | –
15 | 20 | 92 | – | CC(OC/C=C/c1ccccc1)C1=C(C(=O)O)Oc2ccc(OCc3ccccc3)cc2O1 (configuration not stated) | –
16 | 0 | 40 | > 10000 | CN(CCc1ccccc1)C(=O)C1=COc2ccc(OCc3ccccc3)cc2O1 | –
17 | – | – | – | CCCc1ccccc1OCCCCCCc1cccc(OCCCCC(=O)O)c1CCC(=O)O | Ki [22]: 1 nM
18 | 27 | 78 | – | O=C(O)C1=C(C(=O)N2CCC(Cc3ccccc3)CC2)Oc2cc(OCc3ccccc3)ccc2O1 | –
19 | – | – | – | CCCc1c(OCCCOc2ccc(C(=O)NC)c(OC)c2CC2CC2)ccc2c1O[C@H](CCC(=O)O)CC2 | Ki [22]: 1.3 nM
20 | 20 | 98 | 477 | O=C(O)C1=C(C(=O)N2CCC(Cc3ccccc3)CC2)Oc2ccc(OCc3ccccc3)cc2O1 | –
21 | 25 | 95 | 439 | CN(CCc1ccccc1)C(=O)C1=C(C(=O)O)Oc2ccc(OCc3ccccc3)cc2O1 | –
